Source: ChEMBL document CHEMBL5230090, “Recent progress in Keap1-Nrf2 protein-protein interaction inhibitors” (Eur J Med Chem, 2020)
Values joined by “and” are separate entries in the source; they are usually repeats but may differ in a detail not shown here. Equal values may be shown once. Values belong to the molecule of their own block, whether it stands above or below them. Starred links: 1 amine or outer side, 2 acyl side, 3 side chain; linkers in the order of their positions; H or OH if unused. Positions of bridges follow the written chain, without caps; N, C: chain ends. Non-standard residues stand in square brackets, D forms with d. Residues, ends and D or L forms follow the SMILES beside them. Chains are numbered I, II in the order given. X1 = NC(=O)[C@H](CCCCNC(=O)COCCOCCN[*:1])N[*:2]; 2Nal = N[C@@H](Cc1ccc2ccccc2c1)C(=O)O; CH2CH2 = C(C[*:2])[*:1]

How the values were obtained:
[1] = target: T1, Kelch-like ECH-associated protein 1 (Homo sapiens, UniProt Q14145); test: Binding affinity to human KEAP1 Kelch domain by SPR direct binding assay
T1 sequence (Q14145 whole entry, the tested form may be a part): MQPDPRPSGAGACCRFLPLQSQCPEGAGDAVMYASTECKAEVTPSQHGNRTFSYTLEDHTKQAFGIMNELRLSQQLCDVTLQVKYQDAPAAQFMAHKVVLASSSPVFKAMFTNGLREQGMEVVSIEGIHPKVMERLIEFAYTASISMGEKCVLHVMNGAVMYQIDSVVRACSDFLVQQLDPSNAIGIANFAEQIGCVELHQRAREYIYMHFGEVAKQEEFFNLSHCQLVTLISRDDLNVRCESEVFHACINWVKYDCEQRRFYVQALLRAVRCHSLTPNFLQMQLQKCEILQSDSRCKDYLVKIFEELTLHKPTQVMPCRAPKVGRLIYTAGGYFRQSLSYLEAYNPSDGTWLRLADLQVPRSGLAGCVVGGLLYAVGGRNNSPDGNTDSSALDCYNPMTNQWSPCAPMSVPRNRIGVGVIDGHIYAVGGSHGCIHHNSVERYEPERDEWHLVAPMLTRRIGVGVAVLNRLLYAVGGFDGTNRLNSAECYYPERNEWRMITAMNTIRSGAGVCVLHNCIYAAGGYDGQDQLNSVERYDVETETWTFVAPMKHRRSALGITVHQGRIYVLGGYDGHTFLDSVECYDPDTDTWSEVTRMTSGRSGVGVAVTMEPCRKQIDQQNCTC

Keap1/Nrf2 [2] = target: T2, Keap1/Nrf2 (Homo sapiens, UniProt Q14145)
T2 sequence (Q16236 whole entry): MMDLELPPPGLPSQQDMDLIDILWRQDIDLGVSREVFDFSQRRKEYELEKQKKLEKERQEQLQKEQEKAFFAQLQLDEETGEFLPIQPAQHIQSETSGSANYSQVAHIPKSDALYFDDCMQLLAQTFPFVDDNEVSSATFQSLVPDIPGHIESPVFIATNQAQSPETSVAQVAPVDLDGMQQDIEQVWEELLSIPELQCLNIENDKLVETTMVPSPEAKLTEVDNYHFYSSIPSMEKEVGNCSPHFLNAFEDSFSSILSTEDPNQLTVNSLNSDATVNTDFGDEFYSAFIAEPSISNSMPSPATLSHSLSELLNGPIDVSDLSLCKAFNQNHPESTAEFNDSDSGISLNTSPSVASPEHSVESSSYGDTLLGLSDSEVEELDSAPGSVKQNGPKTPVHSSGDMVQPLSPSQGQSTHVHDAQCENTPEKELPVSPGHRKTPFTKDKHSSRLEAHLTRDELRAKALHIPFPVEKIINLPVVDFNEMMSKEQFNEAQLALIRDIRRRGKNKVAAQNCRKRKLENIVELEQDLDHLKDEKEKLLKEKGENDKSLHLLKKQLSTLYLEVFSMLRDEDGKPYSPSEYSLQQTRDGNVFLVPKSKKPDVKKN
T2 sequence (Q14145 whole entry): as the sequence (Q14145 whole entry, the tested form may be a part) above

[3] = target: T1, Kelch-like ECH-associated protein 1
Keap1/Nrf2 [4] = target: T2, Keap1/Nrf2; remark: listed apart in the source
[5] = target: T1, Kelch-like ECH-associated protein 1; remark: listed apart in the source
[6] = target: T1, Kelch-like ECH-associated protein 1; test: Binding affinity to human KEAP1 by fluorescence anisotropy assay
Keap1/Nrf2 [7] = target: T2, Keap1/Nrf2; test: Inhibition of human Keap1-Nrf2 protein-protein interaction expressed in U2OS cells incubated for 6 hrs by cellular Keap1-Nrf2 functional assay; type: cell-based
[8] = target: T1, Kelch-like ECH-associated protein 1; test: Binding affinity to human KEAP1 by fluorescence polarization assay
[9] = target: T1, Kelch-like ECH-associated protein 1; test: Binding affinity to human KEAP1 Kelch domain (residues Ala321-Thr609) expressed in Escherichia coli BL21(DE3) cells assessed as dissociation constant by SPR direct binding assay
[10] = target: T1, Kelch-like ECH-associated protein 1; test: Binding affinity to human KEAP1 Kelch domain (residues Ala321-Thr609) expressed in Escherichia coli BL21(DE3) cells assessed as dissociation constant by isothermal titration calorimetric analysis
[11] = target: T1, Kelch-like ECH-associated protein 1; test: Binding affinity to human KEAP1 incubated for 1 hr by absorbance based analysis
Keap1/Nrf2 [12] = target: T2, Keap1/Nrf2; test: Inhibition of human Keap1-Nrf2 protein-protein interaction by ELISA method; type: protein assay

Kd [1]: 19.6 µM
Compound: O=c1c2ccccc2nc2c3[nH]c4ccccc4c3ccn12

IC50 (Keap1/Nrf2 [2]): 10 nM
Compound: C[C@H](Oc1cccc(-c2cccc(-n3ncc(C(=O)O)c3[C@@H]3C[C@H]3c3cn(C)nn3)c2)c1)C1CCCCC1

Compound: O=C(O)c1ccc(NC2=C/C(=N/S(=O)(=O)c3ccc4ccccc4c3)c3ccccc3C2=O)cc1
Kd [3]: 158 nM
IC50 (Keap1/Nrf2 [2]): 2700 nM

IC50 (Keap1/Nrf2 [4]): 15.8 nM
IC50 (Keap1/Nrf2 [2]): 14.4 nM
Kd [5]: 39.8 nM
Compound: COc1ccc(S(=O)(=O)N(Cc2nnn[nH]2)c2ccc(N(Cc3nnn[nH]3)S(=O)(=O)c3ccc(OC)cc3)c3ccccc23)cc1

Kd [6]: 1140 nM
Kd [3]: 453 nM
Compound: CCc1ccc(S(=O)(=O)N(CC(=O)O)c2cc(Sc3nc[nH]n3)c(O)c3ccccc23)cc1

IC50 (Keap1/Nrf2 [2]): 100000 nM and 185000 nM
Compound: COC1=C(NCC(=O)O)CC(O)(CO)C/C1=N\C(CO)C(=O)O (stereo not drawn)

IC50 (Keap1/Nrf2 [2]): 100000 nM and 185000 nM
Compound: COC1=C(NCC(=O)O)CC(O)(CO)C/C1=N\C(C(=O)O)C(C)O (stereo not drawn)

IC50 (Keap1/Nrf2 [2]): 63 nM
Compound: CCCCC1CCCN1C(=O)c1cccc(-c2cccc(-n3ncc(C(=O)O)c3C3CC3)c2)c1 (stereo not drawn)

EC50 (Keap1/Nrf2 [7]): 1460 nM
Compound: CC1=NN(c2ccccc2)C(=O)/C1=C/c1ccc(OS(=O)(=O)c2ccccc2[N+](=O)[O-])cc1

Kd [8]: 100 nM
Compound: N[C@@H](CC(=O)O)C(=O)N[C@@H](CC(=O)O)C(=O)N[C@@H](Cc1c[nH]c2ccccc12)C(=O)O (H-Asp-Asp-Trp-OH)

Kd [8]: 120 nM
Compound: NCCCC[C@H](NC(=O)[C@H](CCCCN)NC(=O)[C@@H](N)CC(=O)O)C(=O)O (H-Asp-Lys-Lys-OH)

Kd [9]: 77 µM
Kd [10]: 10 µM
Compound: N[C@@H](CCC(=O)O)C(=O)N[C@@H](Cc1c[nH]c2ccccc12)C(=O)N[C@@H](Cc1c[nH]c2ccccc12)C(=O)N[C@@H](Cc1c[nH]c2ccccc12)C(=O)O (H-EWWW-OH)

Kd [8]: 51 nM
Compound: CC[C@H](C)[C@@H]1NC(=O)[C@H](CC(=O)O)NC(=O)[C@H](CCC(N)=O)NC(=O)[C@H](CCCNC(=N)N)NC(=O)[C@H](Cc2c[nH]c3ccccc23)NC(=O)[C@H](CC(C)C)NC(=O)[C@H]([C@@H](C)CC)NC(=O)[C@H](CC(=O)O)NC(=O)[C@@H](NC(=O)[C@H](CC(C)C)NC(=O)[C@H](CC(=O)O)NC(=O)[C@@H](N)CCSC)CSSC[C@@H](C(=O)N[C@@H](Cc2ccccc2)C(=O)N[C@@H](CO)C(=O)O)NC(=O)[C@H](Cc2ccccc2)NC(=O)[C@H](C(C)C)NC(=O)[C@H](CCC(=O)O)NC(=O)[C@H](CCCNC(=N)N)NC(=O)[C@H](CO)NC(=O)[C@H](C(C)C)NC(=O)CNC(=O)[C@H](CC(C)C)NC(=O)[C@H](CC(=O)O)NC1=O (H-MDLCDILWRQDIDLGVSREVFCFS-OH; disulfide 4-22)

Kd [11]: 40 nM
Compound: C[C@@H]1NC(=O)[C@H](CC(=O)O)NC(=O)[C@@H](N)Cc2ccc(cc2)OCCSC[C@@H](C(=O)O)NC(=O)[C@H](CCC(=O)O)NC(=O)CNC(=O)[C@H]([C@@H](C)O)NC(=O)[C@H](CCC(=O)O)NC1=O (H-YDAETGEC-OH; linker 1-8 via CH2CH2)

Kd [11]: 43 nM
Compound: CC[C@H](C)[C@@H]1NC(=O)[C@H](CC(=O)O)NC(=O)[C@@H](N)Cc2ccc(cc2)OCCSC[C@@H](C(=O)O)NC(=O)[C@H](CCC(=O)O)NC(=O)CNC(=O)[C@H]([C@@H](C)O)NC(=O)[C@H](CCC(=O)O)NC1=O (H-YDIETGEC-OH; linker 1-8 via CH2CH2)

Compound: CC(C)C[C@@H]1NC(=O)[C@H](Cc2ccccc2)NC(=O)[C@H](CCC(=O)O)NC(=O)CNC(=O)[C@H]([C@@H](C)O)NC(=O)[C@H](CCC(=O)O)NC(=O)[C@@H]2CCCN2C(=O)[C@H](CC(=O)O)NC(=O)[C@H](CC(C)C)NC(=O)[C@H](CCC(=O)NCCOCCOCC(=O)NCCCC[C@H](NC(=O)CC[C@@H]2NC(=O)[C@H](CCCNC(=N)N)NC(=O)[C@H](CCCNC(=N)N)NC(=O)[C@H](CCCNC(=N)N)NC(=O)[C@H](CCCNC(=N)N)NC(=O)[C@H](Cc3ccc4ccccc4c3)NC(=O)[C@H](Cc3ccccc3)NC2=O)C(N)=O)NC(=O)CNC1=O (I: cyclo(DPETGEFLGEL) / II: cyclo([2Nal]RRRREF); linker I:10-II:6 via X1)
Kd [8]: 48 nM
IC50 (Keap1/Nrf2 [2]): 153 nM

Compound: CC(=O)N1CCN(c2ccc(OCC3COC(Cn4ccnc4)(c4ccc(Cl)cc4Cl)O3)cc2)CC1 (stereo not drawn) [KETOCONAZOLE]
IC50 (Keap1/Nrf2 [12]): 1670 nM
